Measurements taken from patent US20250353848A1, “HETEROCYCLIC PAD4 INHIBITORS” (Celgene Corporation, priority 2022, published 2025).

biological target: hPAD4 enzyme (Homo sapiens, UniProt Q9UM07); experiment: RFMS Assay 1 (rapid-fire mass spectrum PAD4 inhibition assay, BAEE substrate); format: biochemical; details: 5 nM hPAD4 enzyme, 250 μM BAEE, 30 mins compound and enzyme preincubation at 37° C., 90 min enzyme/substrate reaction
Experimental: Compounds were solubilized in 100% DMSO to achieve a 10 mM compound concentration. Compound stock solutions were stored at RT. A series of dilutions were prepared in DMSO and mixed 8 times with 20 μL mixing volume. Final top concentration of compound in the assay is 50 μM. Final assay conditions were as follows: • Reaction volume: 26 μl • Assay buffer: 25 mM hepes, pH 7.5, 5 mM NaCl, 1 mM DTT, 0.2 mg/ml BSA, 0.01% CHAPS, 50 μM Calcium, and 5 μM TPEN • Final concentrations: 5 nM hPAD4 enzyme, 250 μM BAEE, and 0.5% DMSO • Total incubation time: 30 mins compound and enzyme preincubation at 37° C., 90 min enzyme/substrate reaction, 30 min reaction with phenyl glyoxal at 37° C. • Stop solution: 40 μl 5% TCA in ACN
0.13 μL of compound solution was added to 13 μL of 10 nM PAD4 in assay buffer. After 30 min 13 μl of 500 μM of BAEE was added in 25 mM hepes, pH 7.5, 5 mM NaCl, 1 mM DTT, 0.2 mg/ml BSA, 0.01% CHAPS, 50 µM Calcium, […] was added and the reaction incubated for 90 min at 37° C. The enzymatic reaction was quenched by addition of 15 μl of 6.1N TCA, 100% Final Concentration is 20%, 35 μl of 8.5 mM phenyl glyoxal (final concentration 4 mM) is then added and the reaction is incubated for 30 min at 37° C.
After 30 minutes the plates are spun down to remove all precipitate. The enzyme reaction was quenched with an equal volume of methanol containing internal standard (modified citrulline). Samples were loaded onto the Rapid Fire RF300 system (Agilent) wherein they were first sipped for 1000 ms and then directly loaded to a C18 separations cartridge using a mixture of acetonitrile containing 0.01% formic acid for 3000 ms desalting. The flow rate of the mobile phase was 1.5 ml/min. Once the samples were eluted from the cartridge, a mobile phase of acetonitrile containing 0.01% formic acid was used to move the samples into the mass spectrometer for 4000 ms at a flow rate of 1.25 ml/min/Sciex AP15500 triple quadrupole mass spectrometer (Applied Biosystems) equipped with ESI was used to analyze the peptidyl citrulline and internal standard ions.
MRM transition of product and internal standard were monitored at m/z 424.5 to 350.4 and m/z 293 to 247 respectively. The dwell time for each transition was set at 200 ms, and the ESI voltage was used at 5500 with a source temperature of 400° C. Extracted ion peaks for each transition were integrated using the Rapid Fire Integrator software. Peak area of analyte was normalized with internal standard.).

Sequence of hPAD4 enzyme (Q9UM07 whole entry): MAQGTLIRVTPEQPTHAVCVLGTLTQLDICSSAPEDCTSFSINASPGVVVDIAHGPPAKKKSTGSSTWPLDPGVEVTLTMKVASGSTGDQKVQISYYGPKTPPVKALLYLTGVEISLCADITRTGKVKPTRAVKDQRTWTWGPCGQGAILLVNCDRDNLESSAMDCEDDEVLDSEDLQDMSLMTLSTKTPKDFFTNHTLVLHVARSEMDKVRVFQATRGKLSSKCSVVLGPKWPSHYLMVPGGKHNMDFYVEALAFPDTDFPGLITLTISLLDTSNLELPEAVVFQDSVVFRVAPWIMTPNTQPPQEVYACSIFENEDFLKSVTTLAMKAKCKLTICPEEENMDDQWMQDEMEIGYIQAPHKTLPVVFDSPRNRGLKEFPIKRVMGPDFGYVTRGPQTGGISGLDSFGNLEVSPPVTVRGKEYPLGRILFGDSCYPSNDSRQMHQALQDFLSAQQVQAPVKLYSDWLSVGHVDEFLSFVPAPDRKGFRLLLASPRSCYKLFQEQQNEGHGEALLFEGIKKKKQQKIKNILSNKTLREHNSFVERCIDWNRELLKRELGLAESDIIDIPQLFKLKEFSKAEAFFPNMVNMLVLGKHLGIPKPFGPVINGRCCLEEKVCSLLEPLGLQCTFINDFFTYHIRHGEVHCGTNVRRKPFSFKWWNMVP

SMILES	IC50 [µM]
C[C@@H](COc1cccc2cc(-c3nc4cc5c(nc4n3C)CCN(C[C@H](N)CF)C5=O)n(CC3CC3)c12)n1ccnc1 [Example 80, 2-(7-((S)-2-(1H-imidazol-1-yl)propoxy)-1-(cyclopropylmethyl)-1H-indol-2-yl)-7-((S)-2-amino-3-fluoropropyl)-3-methyl-3,5,6,7-tetrahydro-8H-imidazo[4,5-b][1,6]naphthyridin-8-one]	0.011 to 0.1
C[C@H](COc1cccc2cc(-c3nc4cc5c(nc4n3C)CCN(C[C@@H](C)N)C5=O)n(CC3CC3)c12)n1cnc(F)c1 [Example 81, 7-((R)-2-aminopropyl)-2-(1-(cyclopropylmethyl)-7-((R)-2-(4-fluoro-1H-imidazol-1-yl)propoxy)-1H-indol-2-yl)-3-methyl-3,5,6,7-tetrahydro-8H-imidazo[4,5-b][1,6]naphthyridin-8-one]	≤ 0.01
COc1cccc2cc(-c3nc4cc5c(nc4n3C)CCN(C[C@H](N)CF)C5=O)n(CC(F)F)c12 [Example 3, (S)-7-(2-amino-3-fluoropropyl)-2-(1-(2,2-difluoroethyl)-7-methoxy-1H-indol-2-yl)-3-methyl-3,5,6,7-tetrahydro-8H-imidazo[4,5-b][1,6]naphthyridin-8-one]	0.101 to 0.5
C[C@@H](Cn1cnc(F)c1)Oc1cccc2cc(-c3nc4cc5c(nc4n3C)CCN(C[C@H](N)CF)C5=O)n(CC3CC3)c12 [Example 66, 7-((S)-2-amino-3-fluoropropyl)-2-(1-(cyclopropylmethyl)-7-(((S)-1-(4-fluoro-1H-imidazol-1-yl)propan-2-yl)oxy)-1H-indol-2-yl)-3-methyl-3,5,6,7-tetrahydro-8H-imidazo[4,5-b][1,6]naphthyridin-8-one]	≤ 0.01
CC(=O)N1CCC(c2cccc3cc(-c4nc5cc6c(nc5n4C)CCN(C[C@H](N)CF)C6=O)n(CC4CC4)c23)CC1 [Example 29, (S)-2-(7-(1-acetylpiperidin-4-yl)-1-(cyclopropylmethyl)-1H-indol-2-yl)-7-(2-amino-3-fluoropropyl)-3-methyl-3,5,6,7-tetrahydro-8H-imidazo[4,5-b][1,6]naphthyridin-8-one]	0.101 to 0.5
COc1cccc2cc(-c3nc4cc5c(nc4n3C)CCN(C[C@H]3COCCN3)C5=O)n(CCOC(F)F)c12 [Example 28, (S)-2-(1-(2-(difluoromethoxy)ethyl)-7-methoxy-1H-indol-2-yl)-3-methyl-7-(morpholin-3-ylmethyl)-3,5,6,7-tetrahydro-8H-imidazo[4,5-b][1,6]naphthyridin-8-one]	0.501 to 1
Cn1c(-c2cc3cccc(CCCn4cnc(F)c4)c3n2CC2CC2)nc2cc3c(nc21)CCN(C[C@H](N)CF)C3=O [Example 99, (S)-7-(2-amino-3-fluoropropyl)-2-(1-(cyclopropylmethyl)-7-(3-(4-fluoro-1H-imidazol-1-yl)propyl)-1H-indol-2-yl)-3-methyl-3,5,6,7-tetrahydro-8H-imidazo[4,5-b][1,6]naphthyridin-8-one]	0.011 to 0.1
Cn1c(-c2cc3cccc(OCC(O)c4cnco4)c3n2CC2CC2)nc2cc3c(nc21)CCN(C[C@H](N)CF)C3=O (single isomer, unassigned) [Example 61a]	0.101 to 0.5
CN1C[C@H](COc2cccc3cc(-c4nc5cc6c(nc5n4C)CCN(C[C@H](N)CF)C6=O)n(CC4CC4)c23)CS1(=O)=O [Example 53, 7-((S)-2-amino-3-fluoropropyl)-2-(1-(cyclopropylmethyl)-7-(((R)-2-methyl-1,1-dioxidoisothiazolidin-4-yl)methoxy)-1H-indol-2-yl)-3-methyl-3,5,6,7-tetrahydro-8H-imidazo[4,5-b][1,6]naphthyridin-8-one]	0.101 to 0.5
CC(C(F)Oc1cccc2cc(-c3nc4cc5c(nc4n3C)CCN(C[C@H](N)CF)C5=O)n(CC3CC3)c12)n1ccnc1 (single isomer, unassigned) [Example 78b]	≤ 0.01
Cn1c(-c2cc3cccc(NC(=O)Cn4ccnc4)c3n2CC2CC2)nc2cc3c(nc21)CCN(C[C@H](N)CF)C3=O [Example 100, (S)—N-(2-(7-(2-amino-3-fluoropropyl)-3-methyl-8-oxo-5,6,7,8-tetrahydro-3H-imidazo[4,5-b][1,6]naphthyridin-2-yl)-1-(cyclopropylmethyl)-1H-indol-7-yl)-2-(1H-imidazol-1-yl)acetamide]	0.501 to 1
Cn1c(-c2cc3cccc(/C=C/Cn4cnc(F)c4)c3n2CC2CC2)nc2cc3c(nc21)CCN(C[C@H](N)CF)C3=O [Example 97, (S,E)-7-(2-amino-3-fluoropropyl)-2-(1-(cyclopropylmethyl)-7-(3-(4-fluoro-1H-imidazol-1-yl)prop-1-en-1-yl)-1H-indol-2-yl)-3-methyl-3,5,6,7-tetrahydro-8H-imidazo[4,5-b][1,6]naphthyridin-8-one]	0.011 to 0.1
C[C@H](COc1cccc2cc(-c3nc4cc5c(nc4n3C)CCN(C[C@H](N)CF)C5=O)n(CC3CC3)c12)n1cncc1C#N [Example 94, 1-((R)-1-((2-(7-((S)-2-amino-3-fluoropropyl)-3-methyl-8-oxo-5,6,7,8-tetrahydro-3H-imidazo[4,5-b][1,6]naphthyridin-2-yl)-1-(cyclopropylmethyl)-1H-indol-7-yl)oxy)propan-2-yl)-1H-imidazole-5-carbonitrile]	0.101 to 0.5
C[C@H](COc1nccc2cc(-c3nc4cc5c(nc4n3C)CCN(C[C@H](N)CF)C5=O)n(CC3CC3)c12)n1cnc(F)c1 [Example 83, 7-((S)-2-amino-3-fluoropropyl)-2-(1-(cyclopropylmethyl)-7-((R)-2-(4-fluoro-1H-imidazol-1-yl)propoxy)-1H-pyrrolo[2,3-c]pyridin-2-yl)-3-methyl-3,5,6,7-tetrahydro-8H-imidazo[4,5-b][1,6]naphthyridin-8-one]	≤ 0.01
C[C@@H](COc1cccc2cc(-c3nc4cc5c(nc4n3C)CCN(C[C@H](N)CF)C5=O)n(CC3CC3)c12)n1cncc1C#N [Example 88, 1-((S)-1-((2-(7-((S)-2-amino-3-fluoropropyl)-3-methyl-8-oxo-5,6,7,8-tetrahydro-3H-imidazo[4,5-b][1,6]naphthyridin-2-yl)-1-(cyclopropylmethyl)-1H-indol-7-yl)oxy)propan-2-yl)-1H-imidazole-5-carbonitrile]	0.101 to 0.5
COc1cccc2cc(-c3nc4cc5c(nc4n3C)CCN(C[C@H](N)CF)C5=O)n(CC3CC3(F)F)c12 (stereo partly drawn) [Example 4, 7-((S)-2-amino-3-fluoropropyl)-2-(1-((2,2-difluorocyclopropyl)methyl)-7-methoxy-1H-indol-2-yl)-3-methyl-3,5,6,7-tetrahydro-8H-imidazo[4,5-b][1,6]naphthyridin-8-one]	0.101 to 0.5
Cn1c(-c2cc3cccc(OCC(F)n4ccnc4)c3n2CC2CC2)nc2cc3c(nc21)CCN(C[C@H](N)CF)C3=O (single isomer, unassigned) [Example 79b]	0.011 to 0.1
CC(C(F)Oc1cccc2cc(-c3nc4cc5c(nc4n3C)CCN(C[C@H](N)CF)C5=O)n(CC3CC3)c12)n1ccnc1 (single isomer, unassigned) [Example 78c]	0.011 to 0.1
Cn1c(-c2cc3cccc(OCCc4ccccn4)c3n2CC2CC2)nc2cc3c(nc21)CCN(C[C@H](N)CF)C3=O [Example 58, (S)-7-(2-amino-3-fluoropropyl)-2-(1-(cyclopropylmethyl)-7-(2-(pyridin-2-yl)ethoxy)-1H-indol-2-yl)-3-methyl-3,5,6,7-tetrahydro-8H-imidazo[4,5-b][1,6]naphthyridin-8-one]	0.101 to 0.5
Cn1c(-c2cc3cccc(OCCn4cnc(Cl)n4)c3n2CC2CC2)nc2cc3c(nc21)CCN(C[C@H](N)CF)C3=O [Example 92, (S)-7-(2-amino-3-fluoropropyl)-2-(7-(2-(3-chloro-1H-1,2,4-triazol-1-yl)ethoxy)-1-(cyclopropylmethyl)-1H-indol-2-yl)-3-methyl-3,5,6,7-tetrahydro-8H-imidazo[4,5-b][1,6]naphthyridin-8-one]	0.011 to 0.1

The next lines start with the values.

IC50 [µM]	SMILES
0.011 to 0.1	COCCn1c(-c2nc3cc4c(nc3n2C)CCN(C[C@H](N)CF)C4=O)cc2cccc(OC(F)Cn3ccnc3)c21 (single isomer, unassigned) [Example 77b]
0.011 to 0.1	Cn1c(-c2cc3cccc(OC(C)(F)Cn4ccnc4)c3n2CC2CC2)nc2cc3c(nc21)CCN(C[C@H](N)CF)C3=O (single isomer, unassigned) [Example 76a]
≤ 0.01	Cn1c(-c2cc3cccc(OC(F)Cn4cnc(F)c4)c3n2CC2CC2)nc2cc3c(nc21)CCN(C[C@H](N)CF)C3=O (single isomer, unassigned) [Example 73b]
